Measured values: patent US20180148418A1, “AMIDO-SUBSTITUTED CYCLOHEXANE DERIVATIVES” (Bayer Pharma Aktiengesellschaft, priority 2015, published 2018)

What was measured:
[1] = tested on: wildtype Wnt signaling cascade; experiment: HEK293 TOP assay (Super TopFlash luciferase reporter, Wnt-3a stimulated); type: cell-based; details: Homo sapiens, HEK293, 16 h, HEK293 TOP reporter cells, Wnt3a at EC50, 16 hours
How it was run: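 Compound series (50 μM down to 15 nM, 3.16-fold) diluted from DMSO 50-fold into CAFTY buffer, pH 7.4, 2 mM Ca^2+, 0.01% BSA, applied to Wnt-3a-stimulated HEK293 TopFlash and FOP reporter lines in parallel. Cells seeded 10000/well 24 h before; luciferase signal measured.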

TNKS1 = target: T1, TNKS1 (Homo sapiens, UniProt O95271); experiment: TNKS1 Assay B (auto-parsylation, [3H]-NAD+ SPA); type: biochemical; details: 6 nM TNKS1, auto-parsylation, over night at room temperature
T1 construct: purchased BPS Bioscience, San Diego, USA 80579 (TNKS1 Histone Ribosylation Assay Kit)
T1 sequence (O95271 1-1327): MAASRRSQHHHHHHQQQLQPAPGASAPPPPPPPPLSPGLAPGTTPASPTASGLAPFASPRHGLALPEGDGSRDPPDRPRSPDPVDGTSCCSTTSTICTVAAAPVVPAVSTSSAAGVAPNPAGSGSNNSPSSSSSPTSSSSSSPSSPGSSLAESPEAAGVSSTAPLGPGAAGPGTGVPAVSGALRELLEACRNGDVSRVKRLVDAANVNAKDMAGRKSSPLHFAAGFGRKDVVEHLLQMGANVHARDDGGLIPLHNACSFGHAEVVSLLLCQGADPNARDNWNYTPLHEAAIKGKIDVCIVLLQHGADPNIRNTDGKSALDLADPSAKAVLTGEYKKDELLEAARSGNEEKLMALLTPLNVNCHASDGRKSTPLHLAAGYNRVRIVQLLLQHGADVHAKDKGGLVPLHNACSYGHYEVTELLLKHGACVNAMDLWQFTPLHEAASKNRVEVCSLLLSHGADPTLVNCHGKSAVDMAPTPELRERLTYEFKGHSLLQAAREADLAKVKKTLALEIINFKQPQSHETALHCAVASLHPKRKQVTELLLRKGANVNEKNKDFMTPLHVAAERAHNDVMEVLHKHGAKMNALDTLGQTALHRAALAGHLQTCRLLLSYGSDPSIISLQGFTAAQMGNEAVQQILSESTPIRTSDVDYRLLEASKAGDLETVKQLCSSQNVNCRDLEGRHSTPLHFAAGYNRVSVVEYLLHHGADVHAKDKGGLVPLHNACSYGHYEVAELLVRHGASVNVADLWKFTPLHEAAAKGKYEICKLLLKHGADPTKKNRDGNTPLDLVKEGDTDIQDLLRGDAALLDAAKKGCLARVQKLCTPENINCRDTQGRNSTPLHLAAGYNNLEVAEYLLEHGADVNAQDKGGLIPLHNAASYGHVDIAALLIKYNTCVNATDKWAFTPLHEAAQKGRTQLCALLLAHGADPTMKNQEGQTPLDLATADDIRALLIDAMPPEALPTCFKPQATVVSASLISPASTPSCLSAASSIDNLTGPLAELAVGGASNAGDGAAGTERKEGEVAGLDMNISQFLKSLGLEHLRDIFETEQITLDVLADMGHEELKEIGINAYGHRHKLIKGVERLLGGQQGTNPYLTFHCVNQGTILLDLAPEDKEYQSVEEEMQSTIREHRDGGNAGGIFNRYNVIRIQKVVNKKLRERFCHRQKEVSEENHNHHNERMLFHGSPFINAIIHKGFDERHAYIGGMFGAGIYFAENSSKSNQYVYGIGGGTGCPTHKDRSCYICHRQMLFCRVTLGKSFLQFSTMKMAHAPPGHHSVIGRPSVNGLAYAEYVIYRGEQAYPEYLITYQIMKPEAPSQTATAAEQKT

| SMILES | IC50 [1] [nM] | IC50 (TNKS1) [nM] |
| --- | --- | --- |
| COc1ccc2ncc(C(=O)N[C@H]3CC[C@H](C(=O)Nc4ccc(F)cc4Cl)CC3)n2n1 [Example 50, N-{trans-4-[(2-chloro-4-fluorophenyl)carbamoyl]cyclohexyl}-6-methoxyimidazo[1,2-b]pyridazine-3-carboxamide] | 350 | 110 |
| Cc1c(C(C)(C)O)cnc2c(C(=O)N[C@H]3CC[C@H](C(=O)Nc4ccc(F)cc4Cl)CC3)cnn12 [Example 359, N-{trans-4-[(2-chloro-4-fluorophenyl)carbamoyl]cyclohexyl}-6-(2-hydroxypropan-2-yl)-7-methylpyrazolo[1,5-a]pyrimidine-3-carboxamide] | 4000 | > 10000 |

The next molecules have a lower IC50 [1] than those just listed; values first:

| IC50 [1] [nM] | IC50 (TNKS1) [nM] | SMILES |
| --- | --- | --- |
| 190 | 84 | O=C(NCCC1CC1)c1nc[nH]c1C(=O)N[C@H]1CC[C@H](C(=O)Nc2ccc(F)cc2Cl)CC1 [Example 74, N^5-{trans-4-[(2-chloro-4-fluorophenyl)carbamoyl]cyclohexyl}-N^4-(2-cyclopropylethyl)-1H-imidazole-4,5-dicarboxamide] |
| 86 | 21 | COC1CN(C(=O)c2nc[nH]c2C(=O)N[C@H]2CC[C@H](C(=O)Nc3ccc(F)cc3Cl)CC2)C1 [Example 24, 4 N-{trans-4-[(2-chloro-4-fluorophenyl)carbamoyl]cyclohexyl}-4-[(3-methoxyazetidin-1-yl)carbonyl]-1H-imidazole-5-carboxamide] |
| 220 | 78 | O=C(NC[C@H]1CCCO1)c1nc[nH]c1C(=O)N[C@H]1CC[C@H](C(=O)Nc2c(F)cc(F)cc2Cl)CC1 [Example 70, N^5-{trans-4-[(2-chloro-4,6-difluorophenyl)carbamoyl]cyclohexyl}-N^4-[(2R)-tetrahydrofuran-2-ylmethyl]-1H-imidazole-4,5-dicarboxamide] |
